Test results published in ChEMBL document CHEMBL3751763, “Polyketide butenolide, diphenyl ether, and benzophenone derivatives from the fungus Aspergillus flavipes PJ03-11” (Bioorg Med Chem Lett, 2016).

Assay: Inhibition of Saccharomyces cerevisiae alpha-Glucosidase using p-nitrophenyl-alpha-D-glucopyranoside as substrate assessed as formation of para-nitrophenol preincubated for 5 mins followed by addition of substrate measured after 15 mins by microplate reader analysis

IC50 [nM] | Structure (SMILES)
42 | COc1cc(O)cc(C(=O)O)c1C(=O)c1c(O)c(Cl)c(C)c(Cl)c1O
22 | COc1cc(/C=C2\OC(=O)C(c3ccc(O)cc3)=C2O)ccc1O
16 | COC(=O)[C@]1(Cc2ccc(O)c(CC=C(C)C)c2)OC(=O)C(OC)=C1c1ccc(O)c(O)c1
> 2000 | COC(=O)c1cc(O)cc(O)c1C(=O)c1c(O)c(Cl)c(C)c(Cl)c1O
> 2000 | COC(=O)c1cc(O)cc(OC)c1Oc1cc(C)c(Cl)c(O)c1C(=O)O
385 | COC(=O)[C@]1(Cc2ccccc2)OC(=O)C(O)=C1c1ccccc1
126 | COC(=O)[C@]1(Cc2ccc(O)cc2)OC(=O)C(O)=C1c1ccc(O)cc1
79 | COc1cc(/C=C2\OC(=O)C(c3ccc(O)cc3)=C2O)cc(OC)c1O
> 2000 | COc1cc(O)cc(C(=O)O)c1Oc1cc(C)cc(O)c1C(=O)O
1480 | COC(=O)c1c(O)c(Cl)c(C)c(Cl)c1Oc1c(OC)cc(O)cc1C(=O)O
> 2000 | COC(=O)c1cc(O)cc(OC)c1Oc1cc(CO)cc(O)c1C(=O)O
685 | C[C@@H]1O[C@@H](O[C@@H]2[C@@H](O)[C@H](O)[C@H](O[C@H]3[C@H](O)[C@@H](O)C(O)O[C@@H]3CO)O[C@H]2CO)[C@@H](O)[C@H](O)[C@H]1N[C@H]1C=C(CO)[C@@H](O)[C@H](O)[C@H]1O (some centres undefined)
199 | COC(=O)c1cc(O)cc(O)c1C(=O)c1c(O)cc(C)cc1O
2700 | O=C1O/C(=C\c2ccc(O)cc2)C(O)=C1c1ccc(O)cc1 [ASPULVINONE E]
> 2000 | COC(=O)c1cc(O)cc(OC)c1Oc1cc(C)cc(O)c1C(=O)O [ASTERRIC ACID]
91 | COC(=O)c1cc(O)cc(OC)c1Oc1c(Cl)c(C)c(Cl)c(O)c1C(=O)O [GEODIN HYDRATE]
> 2000 | COC(=O)c1cc(O)cc(OC)c1Oc1cc(C)c(Cl)c(O)c1C(=O)OC [METHYL CHLOROASTERRATE]
1450 | COC(=O)c1cc(O)cc(OC)c1Oc1c(Cl)c(C)c(Cl)c(O)c1C(=O)OC [METYL DICHLOROASTERRATE]

Structure (SMILES) | IC50 [nM]
O=c1c(O)c(-c2ccc(O)c(O)c2)oc2cc(O)cc(O)c12 [QUERCETIN] | 15
